What follows are compounds tested against wild-type human cardiac sodium channel, hNav1.5 (Homo sapiens, UniProt Q14524) (assay: Late INa screening assay (automated whole cell patch clamp, PatchXpress)). Conditions: not given.
Format: cell-based
Method in brief: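 Late sodium current through wild-type human hNav1.5 stably expressed in HEK293 cells (no beta subunits) was recorded by automated whole-cell patch clamp on a PatchXpress 7000A at 24-27° C. Late INa was induced with 10 μM Tefluthrin or 50 nM ATX II. Cells were stepped from −120 mV to −20 mV for 250 ms at 0.1 Hz, and percent block was normalized to current in Na-free extracellular solution.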

wild-type human cardiac sodium channel, hNav1.5, sequence (Q14524 whole entry): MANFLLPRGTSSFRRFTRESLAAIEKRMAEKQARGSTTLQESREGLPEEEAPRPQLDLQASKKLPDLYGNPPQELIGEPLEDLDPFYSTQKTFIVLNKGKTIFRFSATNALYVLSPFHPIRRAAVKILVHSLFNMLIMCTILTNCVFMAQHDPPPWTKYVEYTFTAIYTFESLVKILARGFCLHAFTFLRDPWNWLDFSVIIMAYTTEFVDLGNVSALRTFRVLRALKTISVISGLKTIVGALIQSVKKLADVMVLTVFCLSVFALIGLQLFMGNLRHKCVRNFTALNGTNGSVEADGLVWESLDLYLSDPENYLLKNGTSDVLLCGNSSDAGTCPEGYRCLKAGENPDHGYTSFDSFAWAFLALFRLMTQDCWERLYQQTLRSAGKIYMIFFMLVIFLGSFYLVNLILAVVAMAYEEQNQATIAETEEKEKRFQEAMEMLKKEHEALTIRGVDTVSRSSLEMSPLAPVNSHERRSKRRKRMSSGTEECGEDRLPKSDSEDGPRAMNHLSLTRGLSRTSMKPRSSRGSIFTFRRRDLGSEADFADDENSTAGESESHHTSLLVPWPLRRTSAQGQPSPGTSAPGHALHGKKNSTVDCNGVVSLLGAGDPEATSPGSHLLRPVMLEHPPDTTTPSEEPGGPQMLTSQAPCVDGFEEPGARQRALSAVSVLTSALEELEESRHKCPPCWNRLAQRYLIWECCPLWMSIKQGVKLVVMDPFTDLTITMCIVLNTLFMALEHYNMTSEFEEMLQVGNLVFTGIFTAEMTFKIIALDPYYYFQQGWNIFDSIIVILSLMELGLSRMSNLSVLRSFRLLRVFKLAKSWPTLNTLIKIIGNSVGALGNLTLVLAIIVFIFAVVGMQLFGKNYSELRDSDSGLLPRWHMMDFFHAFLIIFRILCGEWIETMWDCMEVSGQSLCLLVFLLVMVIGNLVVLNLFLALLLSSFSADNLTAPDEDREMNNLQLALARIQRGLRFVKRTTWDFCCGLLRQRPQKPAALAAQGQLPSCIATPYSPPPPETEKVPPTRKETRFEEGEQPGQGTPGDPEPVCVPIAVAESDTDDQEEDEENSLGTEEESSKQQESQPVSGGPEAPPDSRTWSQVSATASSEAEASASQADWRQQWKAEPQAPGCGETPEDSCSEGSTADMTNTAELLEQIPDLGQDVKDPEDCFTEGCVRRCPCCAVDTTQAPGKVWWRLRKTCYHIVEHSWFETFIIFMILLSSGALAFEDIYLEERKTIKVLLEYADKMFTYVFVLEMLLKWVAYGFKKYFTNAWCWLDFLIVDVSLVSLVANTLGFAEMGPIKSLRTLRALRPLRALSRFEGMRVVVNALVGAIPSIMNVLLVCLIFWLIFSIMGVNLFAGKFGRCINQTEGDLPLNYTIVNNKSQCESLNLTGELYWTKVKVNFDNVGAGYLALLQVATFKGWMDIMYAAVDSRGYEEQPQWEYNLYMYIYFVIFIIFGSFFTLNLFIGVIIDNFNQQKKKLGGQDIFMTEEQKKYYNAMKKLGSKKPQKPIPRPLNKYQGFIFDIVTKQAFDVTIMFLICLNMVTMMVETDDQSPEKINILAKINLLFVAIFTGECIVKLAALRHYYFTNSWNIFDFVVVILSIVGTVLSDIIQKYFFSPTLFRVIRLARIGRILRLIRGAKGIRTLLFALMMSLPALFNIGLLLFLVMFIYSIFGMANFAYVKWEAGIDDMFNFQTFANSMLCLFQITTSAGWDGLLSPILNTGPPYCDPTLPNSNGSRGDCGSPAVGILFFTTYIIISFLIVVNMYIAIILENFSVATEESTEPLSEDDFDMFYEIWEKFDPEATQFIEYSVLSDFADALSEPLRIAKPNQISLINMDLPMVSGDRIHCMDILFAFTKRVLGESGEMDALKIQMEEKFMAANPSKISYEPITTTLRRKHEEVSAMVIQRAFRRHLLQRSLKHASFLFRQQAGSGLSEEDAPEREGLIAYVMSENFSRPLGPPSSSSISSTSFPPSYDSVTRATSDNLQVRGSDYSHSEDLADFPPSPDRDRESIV

`FC(F)(F)Oc1ccc(-c2ccc3nnc(Oc4cccc(C(F)(F)F)c4)n3c2)cc1` [BHN-258] was tested. Which “LateINa_1 uM (percent block of late INa)” value did it give?
The value was 80.1084%.

Same assay, conditions: compound at 1 μM; HEK293 cells expressing hNav1.5; late INa generated with 10 μM Tefluthrin (or 50 nM ATX II); read-out: LateINa_1 uM (percent block of late INa)

Which inhibition at 1 µM does the source give for `FC(F)(F)Oc1ccc(-c2ccc3nnc(C(F)(F)F)n3c2)c(-c2cccnc2)c1` [BHN-132, 6-[2-(pyridin-3-yl)-4-(trifluoromethoxy)phenyl]-3-(trifluoromethyl)[1,2,4]triazolo[4,3-a]pyridine] here?
The inhibition at 1 µM was 29.4%.

Which inhibition at 1 µM does the source give for `OCC(F)(F)c1nnc2ccc(-c3ccc(Oc4ccccc4)cc3)cn12` [BHN-111, 2,2-difluoro-2-[6-(4-phenoxyphenyl)[1,2,4]triazolo[4,3-a]pyridin-3-yl]ethanol] here?
The inhibition at 1 µM was 29%.

For `Cc1c(-c2ccc(OC(F)(F)F)cc2)ccc2nnnn12` [BHN-269, 5-methyl-6-[4-(trifluoromethoxy)phenyl]tetrazolo[1,5-a]pyridine], which inhibition at 1 µM is on record?
The inhibition at 1 µM was 44.7%.

How did the inhibition at 1 µM turn out when `FC(F)(F)Oc1ccc(-c2ccc3nnc(C(F)(F)OCc4cc(-c5ccc(C6CC6)nc5)ccn4)n3c2)cc1` [BHN-316, 6-cyclopropyl-2′-[(difluoro{6-[4-(trifluoromethoxy)phenyl][1,2,4]triazolo[4,3-a]pyridin-3-yl}methoxy)methyl]-3,4′-bipyridine] was run?
The inhibition at 1 µM was 59%.

`Fc1cc(-c2ccc3nnc(C(F)(F)F)n3c2)cc(F)c1Oc1ccccc1` [BHN-109, 6-(3,5-difluoro-4-phenoxyphenyl)-3-(trifluoromethyl)[1,2,4]triazolo[4,3-a]pyridine] was tested. Which inhibition at 1 µM did it give?
Its inhibition at 1 µM is 61.8%.

With `FC(F)(F)Oc1ccc(-c2ccc3nnc(C(F)(F)OCc4noc(C5CC5)n4)n3c2)cc1` [BHN-206, 3-{[(5-cyclopropyl-1,2,4-oxadiazol-3-yl)methoxy](difluoro)methyl}-6-[4-(trifluoromethoxy)phenyl][1,2,4]triazolo[4,3-a]pyridine] as the compound, how does the inhibition at 1 µM read?
The inhibition at 1 µM was 44.7%.

Which inhibition at 1 µM does the source give for `FC(F)(F)COc1ccc(-c2ccc3cnc(C(F)(F)F)n3c2)cc1` [BHN-28, 6-[4-(2,2,2-trifluoroethoxy)phenyl]-3-(trifluoromethyl)imidazo[1,5-a]pyridine] here?
The inhibition at 1 µM was 46.1%.

With `COC(C)(C)c1ccc(-c2ccc3nnc(C(F)(F)F)n3c2)cc1` [BHN-220, 6-[4-(2-methoxypropan-2-yl)phenyl]-3-(trifluoromethyl)[1,2,4]triazolo[4,3-a]pyridine] as the compound, how does the inhibition at 1 µM read?
The inhibition at 1 µM was 58.5%.

With `FC(F)(F)Oc1ccc(-c2ccc3nnc(C(F)(F)OCc4ncccn4)n3c2)cc1` [BHN-245, 3-[difluoro(pyrimidin-2-ylmethoxy)methyl]-6-[4-(trifluoromethoxy)phenyl][1,2,4]triazolo[4,3-a]pyridine] as the compound, how does the inhibition at 1 µM read?
Its inhibition at 1 µM is 38.8%.

With `FC(F)(F)Oc1ccc(-c2ccc3nnc(C(F)(F)OCc4cc(-c5ccccc5)on4)n3c2)cc1` [BHN-298, 3-{difluoro[(5-phenyl-1,2-oxazol-3-yl)methoxy]methyl}-6-[4-(trifluoromethoxy)phenyl][1,2,4]triazolo[4,3-a]pyridine] as the compound, how does the inhibition at 1 µM read?
Its inhibition at 1 µM is 70.3%.

For `FC(F)(F)c1nnc2ccc(-c3ccc(Sc4ccccc4)cc3)cn12` [BHN-119, 6-[4-(phenylsulfanyl)phenyl]-3-(trifluoromethyl)[1,2,4]triazolo[4,3-a]pyridine], which inhibition at 1 µM is on record?
The inhibition at 1 µM was 70.5%.

How did the inhibition at 1 µM turn out when `FC(F)(F)c1ncc2ccc(-c3nc4ccccc4o3)cn12` [BHN-196, 2-[3-(trifluoromethyl)imidazo[1,5-a]pyridin-6-yl]-1,3-benzoxazole] was run?
The inhibition at 1 µM was 26.8%.

How did the inhibition at 1 µM turn out when `Clc1ccc(Oc2ccc(-c3ccc4nnnn4c3)cc2)cc1` [BHN-218, 6-[4-(4-chlorophenoxy)phenyl]tetrazolo[1,5-a]pyridine] was run?
The inhibition at 1 µM was 36%.

With `FC(F)(F)c1nnc2ccc(-c3ccc(Nc4ccc(Cl)cc4)cc3)cn12` [BHN-283, 4-chloro-N-{4-[3-(trifluoromethyl)[1,2,4]triazolo[4,3-a]pyridin-6-yl]phenyl}aniline] as the compound, how does the inhibition at 1 µM read?
Its inhibition at 1 µM is 27.2%.

For `CN(c1ccccc1)c1ccc(-c2ccc3nnc(C(F)(F)F)n3c2)cc1` [BHN-278, N-methyl-N-phenyl-4-[3-(trifluoromethyl)[1,2,4]triazolo[4,3-a]pyridin-6-yl]aniline], which inhibition at 1 µM is on record?
The inhibition at 1 µM was 54.2%.

Which inhibition at 1 µM does the source give for `FC(F)(F)Oc1ccc(-c2ccc3nnc(C(F)(F)F)n3c2)cc1Cl` [BHN-164, 6-[3-chloro-4-(trifluoromethoxy)phenyl]-3-(trifluoromethyl)[1,2,4]triazolo[4,3-a]pyridine] here?
The inhibition at 1 µM was 50.7%.

For `FC(F)(F)Oc1ccc(-c2ccc3nnc(C(F)(F)OCC#Cc4ccccc4)n3c2)cc1` [BHN-295, 3-{difluoro[(3-phenylprop-2-yn-1-yl)oxy]methyl}-6-[4-(trifluoromethoxy)phenyl][1,2,4]triazolo[4,3-a]pyridine], which inhibition at 1 µM is on record?
Its inhibition at 1 µM is 87.7%.

With `FC(F)(F)c1ncc2ccc(-c3ncco3)cn12` [BHN-183, 6-(1,3-oxazol-2-yl)-3-(trifluoromethyl)imidazo[1,5-a]pyridine] as the compound, how does the inhibition at 1 µM read?
Its inhibition at 1 µM is 19.5%.

For `CC(C)(C#N)c1ccc(-c2ccc3nnc(C(F)(F)F)n3c2)cc1` [BHN-66, 2-methyl-2-{4-[3-(trifluoromethyl)[1,2,4]triazolo[4,3-a]pyridin-6-yl]phenyl}propanenitrile], which inhibition at 1 µM is on record?
Its inhibition at 1 µM is 33.2%.

How did the inhibition at 1 µM turn out when `FC(F)(F)Oc1ccc(-c2ccc3nnc(C(F)(F)OCc4coc(-c5ccccc5)n4)n3c2)cc1` [BHN-299, 3-{difluoro[(2-phenyl-1,3-oxazol-4-yl)methoxy]methyl}-6-[4-(trifluoromethoxy)phenyl][1,2,4]triazolo[4,3-a]pyridine] was run?
Its inhibition at 1 µM is 51.1%.

How did the inhibition at 1 µM turn out when `CC(OC(F)(F)c1nnc2ccc(-c3ccc(OC(F)(F)F)cc3)cn12)c1cnc2ccccc2c1` (stereo not shown) [BHN-282, 3-[1-(difluoro{6-[4-(trifluoromethoxy)phenyl][1,2,4]triazolo[4,3-a]pyridin-3-yl}methoxy)ethyl]quinoline] was run?
Its inhibition at 1 µM is 62.7%.

For `N#CCOCC(F)(F)c1nnc2ccc(-c3ccc(OC(F)(F)F)cc3)cn12` [BHN-156, (2,2-difluoro-2-{6-[4-(trifluoromethoxy)phenyl][1,2,4]triazolo[4,3-a]pyridin-3-yl}ethoxy)acetonitrile], which inhibition at 1 µM is on record?
The inhibition at 1 µM was 22.3%.

How did the inhibition at 1 µM turn out when `N#CC1(c2ccc(-c3ccc4nnc(C(F)(F)F)n4c3)cc2)CCCC1` [BHN-135, 1-{4-[3-(trifluoromethyl)[1,2,4]triazolo[4,3-a]pyridin-6-yl]phenyl}cyclopentanecarbonitrile] was run?
The inhibition at 1 µM was 49.2%.

Which inhibition at 1 µM does the source give for `FC(F)(F)Oc1ccc(-c2ccc3nnc(-c4ccccc4)n3c2)cc1` [BHN-21, 3-phenyl-6-[4-(trifluoromethoxy)phenyl][1,2,4]triazolo[4,3-a]pyridine] here?
Its inhibition at 1 µM is 65.2%.

For `FC(F)(F)Oc1ccc(-c2ccc3nnnn3c2)cc1` [BHN-98, 6-[4-(trifluoromethoxy)phenyl]tetrazolo[1,5-a]pyridine], which inhibition at 1 µM is on record?
The inhibition at 1 µM was 54.1%.

For `COCCOc1cc(OC(F)(F)F)ccc1-c1ccc2nnc(C(F)(F)F)n2c1` [BHN-178, 6-[2-(2-methoxyethoxy)-4-(trifluoromethoxy)phenyl]-3-(trifluoromethyl)[1,2,4]triazolo[4,3-a]pyridine], which inhibition at 1 µM is on record?
The inhibition at 1 µM was 28.5%.

`FC(F)(F)Oc1ccc(-c2ccc3nnc(C(F)(F)OCc4ccc(-n5cccn5)nc4)n3c2)cc1` [BHN-315, 3-(difluoro{[6-(1H-pyrazol-1-yl)pyridin-3-yl]methoxy}methyl)-6-[4-(trifluoromethoxy)phenyl][1,2,4]triazolo[4,3-a]pyridine] was tested. Which inhibition at 1 µM did it give?
The inhibition at 1 µM was 55.9%.

How did the inhibition at 1 µM turn out when `FC(F)(F)Oc1ccc(-c2ccc3nnc(C(F)(F)OCC4CC4(F)F)n3c2)cc1` (stereo not shown) [BHN-294, 3-{[(2,2-difluorocyclopropyl)methoxy](difluoro)methyl}-6-[4-(trifluoromethoxy)phenyl][1,2,4]triazolo[4,3-a]pyridine] was run?
The inhibition at 1 µM was 77.6%.

For `OC1(COC(F)(F)c2nnc3ccc(-c4ccc(OC(F)(F)F)cc4)cn23)CCC1` [BHN-248, 1-[(difluoro{6-[4-(trifluoromethoxy)phenyl][1,2,4]triazolo[4,3-a]pyridin-3-yl}methoxy)methyl]cyclobutanol], which inhibition at 1 µM is on record?
Its inhibition at 1 µM is 50.2%.

With `FC(F)(F)COc1ccc(-c2ccc3nnc(C(F)(F)OCc4cc(-c5ccccc5)on4)n3c2)cn1` [BHN-324, 3-{difluoro[(5-phenyl-1,2-oxazol-3-yl)methoxy]methyl}-6-[6-(2,2,2-trifluoroethoxy)pyridin-3-yl][1,2,4]triazolo[4,3-a]pyridine] as the compound, how does the inhibition at 1 µM read?
The inhibition at 1 µM was 46.3%.

Same assay, conditions: compound at 10 μM; HEK293 cells expressing hNav1.5; late INa generated with 10 μM Tefluthrin (or 50 nM ATX II); read-out: LateINa_10 uM (percent block of late INa)

How did the inhibition at 10 µM turn out when `FC(F)(F)c1nnc2ccc(-c3ccc(Oc4ccccc4)cc3)cn12` [BHN-332, 6-(4-phenoxyphenyl)-3-(trifluoromethyl)[1,2,4]triazolo[4,3-a]pyridine] was run?
The inhibition at 10 µM was 83.5%.

For `FC(F)(F)COc1ccc(-c2ccc3cnc(C(F)(F)F)n3c2)cc1` [BHN-28, 6-[4-(2,2,2-trifluoroethoxy)phenyl]-3-(trifluoromethyl)imidazo[1,5-a]pyridine], which inhibition at 10 µM is on record?
Its inhibition at 10 µM is 78.3%.

`FC(F)(F)c1nnc2ccc(-c3ccc(C4CC4)nc3)cn12` [BHN-88, 6-(6-cyclopropylpyridin-3-yl)-3-(trifluoromethyl)[1,2,4]triazolo[4,3-a]pyridine] was tested. Which inhibition at 10 µM did it give?
Its inhibition at 10 µM is 36%.

How did the inhibition at 10 µM turn out when `FC(F)(F)Oc1ccc(-c2ccc3nnc(C(F)(F)F)n3c2)cc1` [BHN-335, 6-[4-(trifluoromethoxy)phenyl]-3-(trifluoromethyl)[1,2,4]triazolo[4,3-a]pyridine] was run?
Its inhibition at 10 µM is 87.7%.

Which inhibition at 10 µM does the source give for `Cn1ncc2cc(-c3ccc4nnc(C(F)(F)F)n4c3)ccc21` [BHN-59, 6-(1-methyl-1H-indazol-5-yl)-3-(trifluoromethyl)[1,2,4]triazolo[4,3-a]pyridine] here?
Its inhibition at 10 µM is 39.8%.

Which inhibition at 10 µM does the source give for `CC(C)(C#N)c1ccc(-c2ccc3nnc(C(F)(F)F)n3c2)cc1` [BHN-66, 2-methyl-2-{4-[3-(trifluoromethyl)[1,2,4]triazolo[4,3-a]pyridin-6-yl]phenyl}propanenitrile] here?
The inhibition at 10 µM was 70.7%.

How did the inhibition at 10 µM turn out when `FC(F)(F)Oc1ccc(-c2ccc3nnc(-c4ccccc4)n3c2)cc1` [BHN-21, 3-phenyl-6-[4-(trifluoromethoxy)phenyl][1,2,4]triazolo[4,3-a]pyridine] was run?
Its inhibition at 10 µM is 86.5%.

`CS(=O)(=O)c1ccc(-c2nnc3ccc(-c4ccc(Oc5ccccc5)cc4)nn23)cc1` [BHN-47, 3-[4-(methylsulfonyl)phenyl]-6-(4-phenoxyphenyl)[1,2,4]triazolo[4,3-b]pyridazine] was tested. Which inhibition at 10 µM did it give?
Its inhibition at 10 µM is 50.7%.

How did the inhibition at 10 µM turn out when `CS(=O)(=O)Nc1ccc(-c2nnc3ccc(-c4ccc(OC(F)(F)F)cc4)cn23)cc1` [BHN-75, N-(4-{6-[4-(trifluoromethoxy)phenyl][1,2,4]triazolo[4,3-a]pyridin-3-yl}-phenyl)methanesulfonamide] was run?
The inhibition at 10 µM was 30.1%.

Source: patent publication US8952034B2, “Fused heterocyclic compounds as ion channel modulators” (Gilead Sciences, Inc., priority 2009, dated 2015)
